These results are taken from PMC4851381, “High Throughput Screening Identifies Novel Lead Compounds with Activity against Larval, Juvenile and Adult Schistosoma mansoni” (PLoS Neglected Tropical Diseases, 2016).

Like-named read-outs stand apart in the source and are kept apart here. Where only a bound is given, the exact number is not on record here.

One series relates to TrxR1. Set-up: method as in ChEMBL. The note with it: ref ChEMBL; cited from earlier work.
Another series concerns TRPC4. Set-up: method as in ChEMBL. The settings on record: ref ChEMBL; cited from earlier work.
The subject of series [1] is S. mansoni schistosomula. Put plainly: Larval HTS and larval dose response (image-based phenotype and motility of schistosomula). It is filed as cell-based, Schistosoma mansoni. The arrangement: Motility score: scale not given here. The note with it: 10μM control wells, -AMP-B.
Another series deals with S. mansoni adult worms. Put plainly: Adult worm assay, single point and dose response. The note with it: Schistosoma mansoni. It is filed as cell-based. On the procedure: (§1) For production of S. mansoni juvenile or adult worms, mice were infected subcutaneously under mild isoflurane (Merial Animal Health Ltd (UK)) anaesthesia with, respectively 1400 (for juveniles) or 450 cercariae (for adults). Worms were recovered from infected mice using sterile techniques by portal perfusion 3 weeks (for juveniles) or 6 weeks (for adults) post-infection using warm perfusion medium (Dulbecco’s Modified Eagle’s Medium [DMEM], 2mM L-glutamine, 100 Units/ml penicillin, 100μg/ml streptomycin, 20mM Hepes, 10 Units/ml heparin [Sigma, UK] [8]. Adult worms were washed free of red blood cells using the perfusion medium, and finally placed in culture in complete medium (cDMEM: DMEM, 2mM L-glutamine, 100 Units/ml penicillin, 100μg/ml streptomycin, 10% foetal calf serum (FCS) at 37°C, in an atmosphere of 5% CO2. Juvenile worms were sedimented successively following washing with cold perfusion medium and then suspended in cold cDMEM until dispensed to avoid attachment to the plastic tubes.
(§2) For the juvenile assay the concentration of worms was adjusted to 40/ml cDMEM and, prior to dispensing, the suspension was cooled on ice to prevent adherence of the worms to the plastic bottles. After swirling to resuspend worms,150μL of suspension was added to the wells of 96 well microtitre plates (Nunc, Thermo Fisher Scientific, UK). Wells were quickly checked and those with <5 worms were marked. The remainder were made up to 200μL and the deficient wells topped up with a worm suspension to ensure that all wells had ≥5 worms. The adult worm assay was as described in [8] except that 1ml cultures containing 3 worm pairs were generally used. Both the juvenile and adult worm assays were assessed for activity on days +1 and +5. Drug effects were determined by assessing the viability of individual worms and calculating the mean percentage inhibition, a hit being defined as ≥70% reduction in viability.
(§3) The primary HTS and subsequent juvenile and adult screens were run as single point (SP) assays at 10–12.5μM depending on the concentrations in the compound collections. Compounds were tested in duplicate. Where necessary, repeat testing was carried out on re-supplied liquid samples. All compounds of interest were re-tested as solid compounds or by repeat synthesis and activity confirmed.
(§4) Compounds with activity against all three parasite stages were tested in parallel dose response (DR) assays against juvenile worms and MRC-5 cells. Promising compounds were then tested in the adult DR. For the parasite DR (larvae, juveniles and adults) the concentrations tested were two fold dilutions starting from 2x the primary screening concentrations (i.e. 20–25μM).
(§5) IC50 values were calculated from the drug concentration–response curves using Microsoft XLfit version 5.1.0.0 (2006–2008 ID Business Solutions Ltd). Results were expressed as the geometric mean IC50.

The test system of series [2] is S. mansoni schistosomula. Kind of series: Larval HTS and larval dose response (image-based phenotype and motility of schistosomula). It is filed as cell-based, Schistosoma mansoni. The arrangement: Motility score: scale not given here. The note with it: for Motility score / Phenotype score: 10μM control wells. On the procedure:
Experiments were performed using the Puerto Rican strain of S. mansoni maintained in Biomphalaria glabrata and CD1 mice. The strain of snail was one bred by Prof Mike Doenhoff (Nottingham University) for high susceptibility to S. mansoni and ease of breeding in large numbers to high density. Careful attention was paid to controlling infections with rotifers which otherwise would contaminate the HTS schistosomula preparations as well as affecting snail viability. This included recovery of egg masses on short length pieces of polypropylene tubing placed into the breeding tanks and treatment of these with 3 x 10 seconds immersion in 70% ethanol with 3 minutes soaking in clean water in between alcohol treatments. Schistosomula were mechanically prepared as previously described with the modification of using a 45% and 70% Percoll gradient, and the cercarial heads recovered from the 70% layer. All centrifugation steps were done at 350x g. The schistosomula generated were then incubated overnight in M169 supplemented with 100U/ml Penicillin, 300μg/ml Streptomycin, 0.25μg/ml Fungizone (Amphotericin B) (Gibco, UK) and 5% Foetal Calf serum.
The larval HTS was run as described previously. Compound libraries were provided in 384 well plates as liquid either (i) small volumes in polypropylene 384 V-bottom storage plates (Greinerbio-one) that were diluted and 500nL dispensed into black 384 imaging plates (ViewPlate 6007460; PerkinElmer) using the Biomek FxP (Beckman Coulter) or (ii) in an assay-ready format from which a 40nL volume was transferred into wells of imaging plates. […] Therefore, to prevent fungal contamination 0.25μg/ml (0.27μM) of amphotericin B (AMP-B) was added to cultures both during the overnight culture prior to plating and during the 3 day assay.
The primary HTS and subsequent juvenile and adult screens were run as single point (SP) assays at 10–12.5μM depending on the concentrations in the compound collections. Compounds were tested in duplicate. Where necessary, repeat testing was carried out on re-supplied liquid samples.
as §4, §5

In series [3] the test system is S. mansoni juvenile worms. Put plainly: Juvenile worm assay (3 week old worms), single point and dose response. It is filed as cell-based. The settings on record: Schistosoma mansoni. As for the experimental part:
as §1, §2, §3, §4, §5

The nature of series [4]: Cytotoxicity assay (Alamar blue). Format: cell-based. The note with it: human, MRC5 CC50. On the procedure:
Activity against mammalian cells was determined using MRC-5 cells. Cells were maintained in Minimum Essential Medium supplemented with glutamax (Gibco, UK), 1% non-essential amino acids (Gibco, UK) and 10% Foetal bovine serum (Gibco, UK). They were harvested by treatment with 0.25% Trypsin-EDTA for 3 minutes and diluted to 1x10^5/ml. 100μl aliquots of the cell suspension were then plated in 96 well plates (Nunc, Thermo Fisher Scientific, UK). The plates were left to incubate for 24 hours at 37°C and 5% CO2 in a humidified incubator. Cytotoxicity DR assays were set up 24 hours post incubation at 5% CO2 and 37°C, with compounds prepared at 3-fold dilutions starting from 50μM. Dilutions were added to the cells such that the final % DMSO/well was 0.5%. Each drug concentration was tested in duplicate. On each 96 well plate there were negative control wells of media only, MRC-5 cells only and MRC-5 cells with 0.5% DMSO. For positive control wells doxorubicin hydrochloride (Sigma-Aldrich, UK) was added to the cells at 100μM concentration. The cultures were then maintained for a further 72 hours at 37°C and 5% CO2. Drug cytotoxicity was determined using the redox indicator Alamar blue (AbD Serotec, UK). 10μl of Alamar Blue was added to each well and the plates incubated for 4 hours at 37°C and 5% CO2 atmosphere. The fluorescence intensity was measured using a Spectramax Gemini plate reader (Molecular Devices, UK) using an excitation wavelength of 530 nm and an emission wavelength of 580 nm.
as §5
In general terms: Alamar Blue is a resazurin reagent that responds to reducing activity.

The subject of another series is P. falciparum. Set-up: method as in Pubchem. The settings on record: ref Pubchem; cited from earlier work.
The subject of another series is Pyoellii. Set-up: method as in ChEMBL. The settings on record: reported by Novartis in Science paper; ref ChEMBL; cited from earlier work.
Series [5] concerns S. mansoni schistosomula. Set-up: method as in PMID 19597541, PMID 20668553. The settings on record: cited from earlier work.
In the next series the test system is Cyp3A4. Set-up: method as in ChEMBL. The note with it: ref ChEMBL; cited from earlier work.
A further series relates to Cyp2C19. Set-up: method as in ChEMBL. The settings on record: ref ChEMBL; cited from earlier work.
[6] abbreviates: Enamine library plates, negative control adjusted to zero.
The mark [7] stands for this setting: GSK library plates, negative control adjusted to zero.
Where [8] appears, read: Pfizer library plates, negative control adjusted to zero.

In the case of `CCOC(=O)C1CCN(C(c2ccccn2)c2c(C)[nH]c3ccccc23)CC1` (stereo not drawn) [CHEMBL1390809], the “activity vs TrxR1” value in the series on TrxR1 is 1.5 µM. Besides, the “activity as an activator of TRPC4” value in the series on TRPC4 was 5 to 10 µM.

What is called EC50 is the concentration needed to bring the measured effect to its halfway point. As usually defined, the CC50 is the concentration giving 50% cytotoxicity. Turning to `O=C(C1CCCCC1)N1CC(=O)N2CCc3ccccc3C2C1` (stereo not drawn) [Praziquantel], the Motility score in the series with S. mansoni schistosomula [1] was -0.53 ± 0.10; in the series on S. mansoni schistosomula [2] (+AMP-B (0.25μg/ml)), -0.57 ± 0.10; in the series on S. mansoni schistosomula [2] (setting [6]), -0.52 ±0.08; in the series with S. mansoni schistosomula [2] (setting [7]) it was -0.67 ±0.12; in the series on S. mansoni schistosomula [2] (MMV library plates, negative control adjusted to zero) it was -0.57 ±0.10; in the series with S. mansoni schistosomula [2] (setting [8]), -0.63 ±0.07. Also, the Phenotype score is recorded as -0.21 ± 0.12 in the series on S. mansoni schistosomula [1]; -0.38 ± 0.08 in the series on S. mansoni schistosomula [2] (+AMP-B (0.25μg/ml)); -0.35 ±0.09 with S. mansoni schistosomula [2] (setting [6]); -0.50 ±0.10 with S. mansoni schistosomula [2] (setting [7]); -0.37 ±0.09 with S. mansoni schistosomula [2] (MMV library plates, mean ±SD, negative control adjusted to zero); -0.37 ±0.04 with S. mansoni schistosomula [2] (setting [8]). Besides, the inhibition at 12.5 µM with S. mansoni adult worms (24 h, day 1, read-out: Adult % motility reduction DAY 1) was determined as 76%; with S. mansoni adult worms (120 h, day 5, read-out: Adult % motility reduction DAY 5), 88%; in series [3] (24 h, day 1, read-out: Juvenile (% motility reduction) DAY 1) it was 57%; in [3] (120 h, day 5, read-out: Juvenile (% motility reduction) DAY 5) it was 58.4%. The half-maximal effective concentration (EC50) in the series with S. mansoni adult worms (first value of cell, * n = 1) was 300 nM; with S. mansoni schistosomula [2] (Schistosoma mansoni, 72 h, 3 day assay, geometric mean), 1900 nM; in series [3] (first value of cell, geometric mean, * n = 1) it was 4700 nM. The cytotoxic concentration (CC50) at 72 h in series [4] is greater than 50000 nM.

In the case of `c1ccc(-c2cc(N3CCN(c4ccccn4)CC3)nc(-c3ccccn3)n2)nc1` [CHEMBL579352], the “activity vs two Pfalciparum strains” value with P. falciparum is on record as less than 100 nM. Further, in the series on Pyoellii, the “activity vs Pyoellii” value is 17.5 nM.

Regarding `C[C@@H]1[C@H](O)[C@@H](C)/C=C/C=C/C=C/C=C/C=C/C=C/C=C/[C@H](O[C@@H]2O[C@H](C)[C@@H](O)[C@H](N)[C@@H]2O)C[C@@H]2O[C@](O)(C[C@@H](O)C[C@@H](O)[C@H](O)CC[C@@H](O)C[C@@H](O)CC(=O)O[C@H]1C)C[C@H](O)[C@H]2C(=O)O` [AMP-B, amphotericin B], in the series with S. mansoni schistosomula [5], the “concentrations reported to have lethal activity” value is 1 to 10 µM.

A word on the AC50: it is the concentration giving half of the maximal activity seen. For the compound `Cc1[nH]c2ccccc2c1C(c1ccccn1)N1CCC(C)CC1` (stereo not drawn) [CHEMBL1517121], the concentration at half-maximal activity (AC50) was 2000 nM with Cyp3A4 and 13000 nM in the series with Cyp2C19.
